Data: BindingDB's records for doi:10.1021/jm021114j (Cardiff University, 2003)

Molecular target: Sterol 24-C-methyltransferase (Leishmania major)
Test: In vitro inhibitory concentration against Leishmania major Sterol 24-C-methyltransferase (24-SMT)

Compared with `CCC(=O)N1CCCCC1C(C)(O)[C@H]1CCC2C3CCC4C[C@@H](O)CC[C@]4(C)C3CC[C@@]21C` (stereo partly drawn) [1-{2-[1-Hydroxy-1-((3S,10S,13S,17S)-3-hydroxy-10,13-dimethyl-hexadecahydro-cyclopenta[a]phenanthren-17-yl)-ethyl]-piperidin-1-yl}-propan-1-one], `CC(O)(C1CCCNC1)[C@H]1CCC2C3CCC4C[C@@H](O)CC[C@]4(C)C3CC[C@@]21C` (stereo partly drawn) [(3S,10S,13S,17S)-17-(1-Hydroxy-1-piperidin-3-yl-ethyl)-10,13-dimethyl-hexadecahydro-cyclopenta[a]phenanthren-3-ol] is 130-fold lower in IC50: 12.9 µM for the first, 0.1 µM for the second. The second is the more potent here.

First: CC(O)(C1CCCCN1)[C@H]1CC[C@H]2[C@@H]3CCC4C[C@@H](O[Si](C)(C)C(C)(C)C)CC[C@]4(C)[C@H]3CC[C@]12C (stereo not given in full)
Second: CC(O)(C1CCCNC1)[C@H]1CCC2C3CCC4C[C@@H](O[Si](C)(C)C(C)(C)C)CC[C@]4(C)C3CC[C@@]21C (stereo partly drawn) [1-[(3S,10S,13S,17S)-3-(tert-Butyl-dimethyl-silanyloxy)-10,13-dimethyl-hexadecahydro-cyclopenta[a]phenanthren-17-yl]-1-piperidin-3-yl-ethanol]
The IC50 of the first is 1.5-fold higher: 12.2 µM for the first, 8 µM for the second. The second is the more potent here.

In the case of `CC(O)(c1cccnc1)[C@H]1CCC2C3CCC4C[C@@H](O)CC[C@]4(C)C3CC[C@@]21C` (stereo partly drawn) [(3S,10S,13S,17S)-17-(1-Hydroxy-1-pyridin-3-yl-ethyl)-10,13-dimethyl-hexadecahydro-cyclopenta[a]phenanthren-3-ol], the IC50 is reported as 38.5 µM.
